Assay results reported in patent US20260250290A1 (BRISTOL-MYERS SQUIBB COMPANY, priority 2023, published 2026).
Where a name gives a salt, the structure may show the parent alone.

target: T1, full length SGK1 (Homo sapiens, UniProt O00141); assay: SGK1 inhibition Assay A (Caliper LabChip electrophoretic separation of fluorescent peptide substrate and phosphorylated product); format: biochemical; conditions: Assay A; 20 μM ATP, 40 min incubation; read-out: SGK1 IC50
T1 construct: 125 μM full length SGK1 (Life Technologies Part #PR7358A); purchased Life Technologies PR7358A
T1 sequence (O00141 1-431): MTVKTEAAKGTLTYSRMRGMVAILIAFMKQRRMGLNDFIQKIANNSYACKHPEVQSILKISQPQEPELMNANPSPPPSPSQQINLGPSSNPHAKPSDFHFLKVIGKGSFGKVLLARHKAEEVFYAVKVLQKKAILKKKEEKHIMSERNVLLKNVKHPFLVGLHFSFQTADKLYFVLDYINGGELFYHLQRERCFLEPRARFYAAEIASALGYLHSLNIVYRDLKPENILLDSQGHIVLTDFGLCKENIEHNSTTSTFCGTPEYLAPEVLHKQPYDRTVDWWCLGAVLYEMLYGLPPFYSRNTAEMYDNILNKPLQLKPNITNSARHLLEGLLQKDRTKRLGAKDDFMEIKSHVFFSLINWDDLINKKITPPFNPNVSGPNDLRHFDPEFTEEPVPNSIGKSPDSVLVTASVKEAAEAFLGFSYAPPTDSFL

SMILES	IC50 [nM]
CC(C)(C)OC(=O)N[C@@H]1CCCN(c2cc(-c3ccc(S(C)(=O)=O)cc3)n3ncnc(N)c23)C1 [Example 11, tert-butyl (R)-(1-(4-amino-7-(4-(methylsulfonyl)phenyl)pyrrolo[2,1-f][1,2,4]triazin-5-yl)piperidin-3-yl)carbamate]	1750
CS(=O)(=O)c1ccc(-c2cc(N3CCC[C@@H](NC(=O)c4ccccc4)C3)c3c(N)ncnn23)cc1 [Example 13, (R)—N-(1-(4-amino-7-(4-(methylsulfonyl)phenyl)pyrrolo[2,1-f][1,2,4]triazin-5-yl)piperidin-3-yl)benzamide]	28
CS(=O)(=O)c1ccc(-c2cc(N3CCC[C@@H](NC(=O)Cc4ccccc4)C3)c3c(N)ncnn23)cc1 [Example 14, (R)-N-(1-(4-amino-7-(4-(methylsulfonyl)phenyl)pyrrolo[2,1-f][1,2,4]triazin-5-yl)piperidin-3-yl)-2-phenylacetamide, TFA]	941
CS(=O)(=O)c1ccc(-c2cc(N3CCC[C@@H](NC(=O)CCc4ccccc4)C3)c3c(N)ncnn23)cc1 [Example 15, (R)-N-(1-(4-amino-7-(4-(methylsulfonyl)phenyl)pyrrolo[2,1-f][1,2,4]triazin-5-yl)piperidin-3-yl)-3-phenylpropanamide, TFA]	499
CS(=O)(=O)c1ccc(-c2cc(N3CCC[C@@H](NC(=O)C4CCCCC4)C3)c3c(N)ncnn23)cc1 [Example 16, (R)-N-(1-(4-amino-7-(4-(methylsulfonyl)phenyl)pyrrolo[2,1-f][1,2,4]triazin-5-yl)piperidin-3-yl) cyclohexanecarboxamide]	324
CS(=O)(=O)c1ccc(-c2cc(N3CCC[C@@H](NC(=O)C4CCOCC4)C3)c3c(N)ncnn23)cc1 [Example 17, (R)-N-(1-(4-amino-7-(4-(methylsulfonyl)phenyl)pyrrolo[2,1-f][1,2,4]triazin-5-yl)piperidin-3-yl)tetrahydro-2H-pyran-4-carboxamide, TFA]	1300
CS(=O)(=O)c1ccc(-c2cc(N3CCC[C@@H](NC(=O)c4ccccc4Cl)C3)c3c(N)ncnn23)cc1 [Example 19, (R)-N-(1-(4-amino-7-(4-(methylsulfonyl)phenyl)pyrrolo[2,1-f][1,2,4]triazin-5-yl)piperidin-3-yl)-2-chlorobenzamide]	274
CS(=O)(=O)c1ccc(-c2cc(N3CCC[C@@H](NC(=O)c4ccccc4F)C3)c3c(N)ncnn23)cc1 [Example 20, (R)-N-(1-(4-amino-7-(4-(methylsulfonyl)phenyl)pyrrolo[2,1-f][1,2,4]triazin-5-yl)piperidin-3-yl)-2-fluorobenzamide]	47
CS(=O)(=O)c1ccc(-c2cc(N3CCC[C@@H](NC(=O)c4cccc(Cl)c4)C3)c3c(N)ncnn23)cc1 [Example 21, (R)-N-(1-(4-amino-7-(4-(methylsulfonyl)phenyl)pyrrolo[2,1-f][1,2,4]triazin-5-yl)piperidin-3-yl)-3-chlorobenzamide]	13
COc1cccc(C(=O)N[C@@H]2CCCN(c3cc(-c4ccc(S(C)(=O)=O)cc4)n4ncnc(N)c34)C2)c1 [Example 22, (R)-N-(1-(4-amino-7-(4-(methylsulfonyl)phenyl)pyrrolo[2,1-f][1,2,4]triazin-5-yl)piperidin-3-yl)-3-methoxybenzamide]	12
Cc1cccc(C(=O)N[C@@H]2CCCN(c3cc(-c4ccc(S(C)(=O)=O)cc4)n4ncnc(N)c34)C2)c1 [Example 23, (R)-N-(1-(4-amino-7-(4-(methylsulfonyl)phenyl)pyrrolo[2,1-f][1,2,4]triazin-5-yl)piperidin-3-yl)-3-methylbenzamide]	11
CS(=O)(=O)c1ccc(-c2cc(N3CCC[C@@H](NC(=O)c4cccc(C(F)(F)F)c4)C3)c3c(N)ncnn23)cc1 [Example 24, (R)-N-(1-(4-amino-7-(4-(methylsulfonyl)phenyl)pyrrolo[2,1-f][1,2,4]triazin-5-yl)piperidin-3-yl)-3-(trifluoromethyl) benzamide]	41
